Values of other authors, collected in patent publication EP0788741B1 (priority 1996, dated 1997).

System: Australorbis Glabratus
Conditions: Public Health Report, Vol. 82, No. 9; cited from earlier work

SMILES | concentration effective to kill Puerto Rican snails [ppm]
CCCCCCCCCCCCCN(C)C.CCCCCCCCCCCCCN(C)C.O=C(O)C1C2CCC(O2)C1C(=O)O [di (N,N-dimethyltridecylamine) salt of Endothall] | 5
CCCCCCCCCCCCCN(C)C.O=C(O)C1C2CCC(O2)C1C(=O)O [mono (N,N-dimethyltridecylamine) salt of Endothall] | 10
